Data as given in US20200216439A1, “HETERO-1,5,6,7-TETRAHYDRO-4H-INDOL-4-ONES” (BAYER PHARMA AKTIENGESELLSCHAFT, priority 2015, published 2020).
pIC50: −log10 of the molar value.

Biological target: T1, catalytic domain of human Bub1 (amino acids 704-1085) (Homo sapiens, UniProt O43683)
T1 construct: catalytic domain of human Bub1 (amino acids 704-1085); His6 (N); made in house; host or cells: Hi5 insect cells
Test: Bub1 kinase assay (TR-FRET)
Assay type: biochemical
Conditions: TR-FRET; ATP 10 μM, peptide substrate 1 μM; 60 min at 22° C.; average or median if tested more than once; read-out: Inhibition of Bub1 kinase IC50
Outline: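 Human Bub1 catalytic domain (704-1085, His6-tagged, Hi5-expressed, ~200 ng/mL) preincubated with compound 15 min at 22 °C, then reacted 60 min at 22 °C with 10 μM ATP and 1 μM biotinylated peptide substrate, pH 7.5. EDTA stop; TR-FRET 665/620 ratio; IC50 from 4-parameter fit, 11 concentrations in duplicate.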

T1 sequence (O43683 704-1085): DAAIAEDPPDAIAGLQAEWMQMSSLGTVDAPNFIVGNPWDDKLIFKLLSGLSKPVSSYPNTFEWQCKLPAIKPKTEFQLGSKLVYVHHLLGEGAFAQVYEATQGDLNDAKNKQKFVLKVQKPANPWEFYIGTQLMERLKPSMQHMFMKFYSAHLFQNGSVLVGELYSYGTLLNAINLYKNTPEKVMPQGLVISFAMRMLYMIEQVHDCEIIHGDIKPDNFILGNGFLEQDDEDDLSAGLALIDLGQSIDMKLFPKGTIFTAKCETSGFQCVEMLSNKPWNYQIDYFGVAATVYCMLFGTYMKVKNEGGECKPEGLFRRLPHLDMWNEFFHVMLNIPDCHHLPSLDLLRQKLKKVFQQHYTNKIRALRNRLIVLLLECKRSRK

Structure (SMILES)	pIC50
O=C1CNCc2[nH]c(-c3ccncc3)c(Nc3ccccc3)c21 [Example 14]	7.33
O=C1CSCc2[nH]c(-c3ccncc3)c(Nc3ccccc3)c21 [Example 4, 3-(phenylamino)-2-(pyridin-4-yl)-1,7-dihydrothiopyrano[3,4-b]pyrrol-4(5H)-one]	7.72
COC(=O)Nc1cc(-c2[nH]c3c(c2Nc2ccccc2)C(=O)COC3)ccn1 [Example 53, Methyl {4-[4-oxo-3-(phenylamino)-1,4,5,7-tetrahydropyrano[3,4-b]pyrrol-2-yl]pyridin-2-yl}carbamate]	7.09
CC(C)(C)OC(=O)N1CC(=O)c2c([nH]c(-c3ccnc(NC(=O)C(C)(C)F)c3)c2Nc2ccccc2)C1 [Example 119, tert-Butyl 2-{2-[(2-fluoro-2-methylpropanoyl)amino]pyridin-4-yl}-4-oxo-3-(phenylamino)-1,4,5,7-tetrahydro-6H-pyrrolo[2,3-c]pyridine-6-carboxylate]	7.38
Cc1nccc(-c2[nH]c3c(c2Nc2ccccc2)C(=O)COC3)n1 [Example 15, 2-(2-Methylpyrimidin-4-yl)-3-(phenylamino)-1,7-dihydropyrano[3,4-b]pyrrol-4(5H)-one]	5.92
COC(=O)N1CC(=O)c2c([nH]c(-c3ccnc(NC(C)=O)c3)c2Nc2ccccc2)C1 [Example 31, Methyl 2-[2-(acetylamino)pyridin-4-yl]-4-oxo-3-(phenylamino)-1,4,5,7-tetrahydro-6H-pyrrolo[2,3-c]pyridine-6-carboxylate]	8.15
C[S+]([O-])CC(=O)Nc1cc(-c2[nH]c3c(c2Nc2ccccc2)C(=O)COC3)ccn1 (stereo not drawn) [Example 47, 2-(Methylsulfinyl)-N-{4-[4-oxo-3-(phenylamino)-1,4,5,7-tetrahydropyrano[3,4-b]pyrrol-2-yl]pyridin-2-yl}acetamide]	6.47
O=C1CN(C(=O)C2CC2)Cc2[nH]c(-c3ccncc3)c(Nc3ccccc3)c21 [Example 5, 6-(Cyclopropylcarbonyl)-3-(phenylamino)-2-(pyridin-4-yl)-1,5,6,7-tetrahydro-4H-pyrrolo[2,3-c]pyridin-4-one]	8.30
O=C(Nc1cc(-c2[nH]c3c(c2Nc2ccccc2)C(=O)COC3)ccn1)c1cnco1 [Example 50, N-{4-[4-Oxo-3-(phenylamino)-1,4,5,7-tetrahydropyrano[3,4-b]pyrrol-2-yl]pyridin-2-yl}-1,3-oxazole-5-carboxamide]	7.59
O=C(Nc1cc(-c2[nH]c3c(c2Nc2ccccc2)C(=O)CNC3)ccn1)c1ccc(F)cc1 [Example 134, N-[4-(3-anilino-4-oxo-4,5,6,7-tetrahydro-1H-pyrrolo[2,3-c]pyridin-2-yl)pyridin-2-yl]-4-fluorobenzamide]	7.44
O=C(Nc1cc(-c2[nH]c3c(c2Nc2ccccc2)C(=O)COC3)ccn1)c1cncs1 [Example 51, N-{4-[4-Oxo-3-(phenylamino)-1,4,5,7-tetrahydropyrano[3,4-b]pyrrol-2-yl]pyridin-2-yl}-1,3-thiazole-5-carboxamide]	7.36
O=C1CN(S(=O)(=O)c2ccccn2)Cc2[nH]c(-c3ccncc3)c(Nc3ccccc3)c21 [Example 74, 3-(phenylamino)-2-(pyridin-4-yl)-6-(pyridin-2-ylsulfonyl)-1,5,6,7-tetrahydro-4H-pyrrolo[2,3-c]pyridin-4-one]	8.22
O=C1C[S+]([O-])Cc2[nH]c(-c3ccncc3)c(Nc3ccccc3)c21 (stereo not drawn) [Example 20, 3-(phenylamino)-2-(pyridin-4-yl)-1,7-dihydrothiopyrano[3,4-b]pyrrol-4(5H)-one 6-oxide]	6.82
COC(=O)N1CC(=O)c2c([nH]c(-c3ccnc(C)n3)c2Nc2ccccc2)C1 [Example 27, Methyl 2-(2-methylpyrimidin-4-yl)-4-oxo-3-(phenylamino)-1,4,5,7-tetrahydro-6H-pyrrolo[2,3-c]pyridine-6-carboxylate]	7.23
Cc1nccc(-c2[nH]c3c(c2Nc2ccccc2)C(=O)CN(S(C)(=O)=O)C3)n1 [Example 29, 2-(2-Methylpyrimidin-4-yl)-6-(methylsulfonyl)-3-(phenylamino)-1,5,6,7-tetrahydro-4H-pyrrolo[2,3-c]pyridin-4-one]	7.62
CC(=O)Nc1cc(-c2[nH]c3c(c2Nc2ccccc2)C(=O)COC3)ccn1 [Example 34, N-{4-[4-Oxo-3-(phenylamino)-1,4,5,7-tetrahydropyrano[3,4-b]pyrrol-2-yl]pyridin-2-yl}acetamide]	7.22
Cc1cnccc1-c1[nH]c2c(c1Nc1ccccc1)C(=O)COC2 [Example 40, 2-(3-Methylpyridin-4-yl)-3-(phenylamino)-1,7-dihydropyrano[3,4-b]pyrrol-4(5H)-one]	5.83
CCC(=O)N1CC(=O)c2c([nH]c(-c3ccncc3)c2Nc2ccccc2)C1 [Example 8, 3-(phenylamino)-6-propanoyl-2-(pyridin-4-yl)-1,5,6,7-tetrahydro-4H-pyrrolo[2,3-c]pyridin-4-one]	8.40

The next lines start with the values.

pIC50	Structure (SMILES)
7.14	O=C1CN(C(=O)N2CCOCC2)Cc2[nH]c(-c3ccncc3OCC(F)(F)F)c(Nc3ccccc3)c21 [Example 245, 6-(Morpholin-4-ylcarbonyl)-3-(phenylamino)-2-[3-(2,2,2-trifluoroethoxy)pyridin-4-y]1,5,6,7-tetrahydro-4H-pyrrolo[2,3-c]pyridin-4-one]
7.29	O=C(Nc1cc(-c2[nH]c3c(c2Nc2ccccc2)C(=O)CNC3)ccn1)c1cncs1 [Example 135]
8.15	O=C1CN(C(=O)c2ccncc2)Cc2[nH]c(-c3ccnc(NC(=O)[C@@H]4C[C@@H]4F)c3)c(Nc3ccccc3)c21 [Example 200, (1S,2S)-2-Fluoro-N-4-[4-oxo-3-(phenylamino)-6-(pyridin-4-ylcarbonyl)-4,5,6,7-tetrahydro-1H-pyrrolo[2,3-c]pyridin-2-yl]pyridin-2-ylcyclopropanecarboxamide]
6.63	COc1ccc(C(=O)Nc2cc(-c3[nH]c4c(c3Nc3ccccc3)C(=O)CN(C(=O)SC(C)(C)C)C4)ccn2)cc1F [Example 305, S-tert-butyl 3-anilino-2-{2-[(3-fluoro-4-methoxybenzoyl)amino]pyridin-4-yl}-4-oxo-1,4,5,7-tetrahydro-6H-pyrrolo[2,3-c]pyridine-6-carbothioate]
6.29	CN(C)CC(=O)Nc1cc(-c2[nH]c3c(c2Nc2ccccc2)C(=O)COC3)ccn1 [Example 153, N-[4-(3-Anilino-4-oxo-1,4,5,7-tetrahydropyrano[3,4-b]pyrrol-2-yl)pyridin-2-yl]-N^2,N^2-dimethylglycinamide]
8.30	CCC(=O)N1CC(=O)c2c([nH]c(-c3ccnc(NC(C)=O)c3)c2Nc2ccccc2)C1 [Example 180, N-[4-(3-Anilino-4-oxo-6-propionyl-4,5,6,7-tetrahydro-1H-pyrrolo[2,3-c]pyridin-2-yl)pyridin-2-yl]acetamide]
7.64	CC(=O)N1CC(=O)c2c([nH]c(-c3ccncc3OCCN(C)C)c2Nc2ccccc2)C1 [Example 278, 6-Acetyl-2-3-[2-(dimethylamino)ethoxy]pyridin-4-yl-3-(phenylamino)-1,5,6,7-tetrahydro-4H-pyrrolo[2,3-c]pyridin-4-one]
7.80	CC(=O)Nc1cc(-c2[nH]c3c(c2Nc2ccccc2)C(=O)CN(C(=O)CCO)C3)ccn1 [Example 189]
8.10	CC(=O)Nc1cc(-c2[nH]c3c(c2Nc2ccccc2)C(=O)CN(C(=O)OCCF)C3)ccn1 [Example 184, 2-Fluoroethyl 2-(2-acetamidopyridin-4-yl)-3-anilino-4-oxo-1,4,5,7-tetrahydro-6H-pyrrolo[2,3-c]pyridine-6-carboxylate]
8.40	CS(=O)(=O)N1CC(=O)c2c([nH]c(-c3ccnc(NC(=O)[C@H]4C[C@H]4F)c3)c2Nc2ccccc2)C1 (relative stereo) [Example 148, rel-(1R,2R)—N-{4-[3-Anilino-6-(methylsulfonyl)-4-oxo-4,5,6,7-tetrahydro-1H-pyrrolo[2,3-c]pyridin-2-yl]pyridin-2-yl}-2-fluorocyclopropanecarboxamide]
8.30	CC(=O)Nc1cc(-c2[nH]c3c(c2Nc2ccccc2)C(=O)CN(C(=O)CC(F)(F)F)C3)ccn1 [Example 169, N-{4-[3-Anilino-4-oxo-6-(3,3,3-trifluoropropanoyl)-4,5,6,7-tetrahydro-1H-pyrrolo[2,3-c]pyridin-2-yl]pyridin-2-yl}acetamide]
8.15	CC(C)OC(=O)N1CC(=O)c2c([nH]c(-c3ccnc(NC(=O)[C@H]4C[C@H]4F)c3)c2Nc2ccccc2)C1 (relative stereo) [Example 157, Isopropyl 3-anilino-2-[2-({[rel-(1R,2R)-2-fluorocyclopropyl]carbonyl}amino)pyridin-4-yl]-4-oxo-1,4,5,7-tetrahydro-6H-pyrrolo[2,3-c]pyridine-6-carboxylate]
6.79	CC(=O)N1CC(=O)c2c([nH]c(-c3ccncc3OCC(F)(F)F)c2Nc2ccccc2)C1 [Example 229, 6-Acetyl-3-(phenylamino)-2-[3-(2,2,2-trifluoroethoxy)pyridin-4-yl]-1,5,6,7-tetrahydro-4H-pyrrolo[2,3-c]pyridin-4-one]
8.10	CC(C)OC(=O)N1CC(=O)c2c([nH]c(-c3ccnc(NC(=O)C4CC4(F)F)c3)c2Nc2ccccc2)C1 (racemic) [Example 158, Isopropyl 3-anilino-2-[2-({[(1RS)-2,2-difluorocyclopropyl]carbonyl}amino)pyridin-4-yl]-4-oxo-1,4,5,7-tetrahydro-6H-pyrrolo[2,3-c]pyridine-6-carboxylate]
7.10	NC(CN1CC(=NO)c2c([nH]c(-c3ccncc3)c2Nc2ccccc2)C1)=NO (mixture of isomers) [Example 218, (1E/Z)—N′-Hydroxy-2-[(4E/Z)-4-(hydroxyimino)-3-(phenylamino)-2-(pyridin-4-yl)-1,4,5,7-tetrahydro-6H-pyrrolo[2,3-c]pyridin-6-yl]ethanimidamide]
